Where “and” joins values, the source holds several entries; their conditions need not be identical. Identical values can stand only once. Like-named read-outs stand apart in the source and are kept apart here.
Experiments:
[1] = tested on: human neutrophils; test: Cytotoxicity in human neutrophils (CellTiter Glo); format: cell-based; details: ≤100 μM, cytotoxic if reduction from vehicle ≥20%
Method: For the chemotaxis and cytotoxicity evaluations, average relative light unit values were calculated from all untreated vehicle samples and, for each sample, percentage of vehicle value was calculated. The tested compound was considered cytotoxic if reduction from untreated vehicle was ≥20%.

[2] = tested on: LPS-induced acute lung injury; details: pretreatment in LPS-induced acute lung injury models; cited from earlier work
[3] = cited from earlier work
[4] = Pharmacokinetics in plasma and epithelial lining fluid of mice after a single SC dose; format: in vivo, BALB/c mice; details: mice; for AUC(0-t): read-out: AUC0-24h, mean±SEM; for Cmax: read-out: Cmax, mean±SEM
Method: Pharmacokinetic parameters were evaluated as previously described. […] Plasma samples were analyzed by liquid chromatography with […] mass spectrometry (Q Exactive Plus; Thermo Fisher Scientific).
Area under the curve (AUC) values were determined using the linear trapezoidal method.

[5] = tested on: human PBMCs; test: Cytotoxicity in human PBMCs (adenylate kinase release, ToxiLight); format: cell-based; details: PBMCs; ≤100 μM
Method: The effect of t est compounds on cell viabilit y of J 774.2 macrophages and human PBMCs […]
was determined b y comp aring th e aden yl ate kinas e signal obtain ed in the p resence of diff er ent concentrations of compounds with those obtained in DMSO (vehicle) control. Signals were […]
divided,and the results were ex pressed as fold-change versus v ehicle con trol .

[6] = tested on: TNF-α, IL-6, IL-1β, GM-CSF, CXCL-1, CXCL-2, CCL-2 and MMP-9 in lung tissue; test: LPS-induced cytokines, chemokines and MMP-9 in mouse lung homogenates (Luminex, ELISA)
[7] = female, BALB/c, mouse, epithelial lining fluid (ELF), ELF, single 35 mg/kg SC
[8] = female, BALB/c, mouse, plasma, single 35 mg/kg SC
[9] = all doses (10, 30, 100 mg/kg SC)
[10] = lung homogenate, LPS, 10 mg/kg, individual animal, listed as Azi
[11] = lung homogenate, LPS, 10 mg/kg, mean of 8

## CC[C@H]1OC(=O)[C@H](C)[C@@H](O[C@H]2C[C@@](C)(OC)[C@@H](O)[C@H](C)O2)[C@H](C)[C@@H](O[C@@H]2O[C@H](C)C[C@H](N(C)C)[C@H]2O)[C@](C)(O)C[C@@H](C)CN(C)[C@H](C)[C@@H](O)[C@]1(C)O [Azithromycin]
[1]
  cytotoxic effects: no cytotoxic effects
[2]
  neutrophil recruitment: significantly reduced
[3]; 500 mg IV daily
  increase in AUC, first to fifth daily dose: 61%
  increase in maximum observed plasma concentration, first to fifth daily dose: 8%
[3]; 500-mg IV 3-hour infusion, healthy volunteers
  plasma exposure (AUC): 5000 ng·h/mL
[4]; ELF, single 35 mg/kg SC
  AUC0-24h/Dose, mean: 0.76 (μg∙h/mL)/(mg/kg)
[4]; female, BALB/c, mouse, epithelial lining fluid (ELF) / plasma, single 35 mg/kg SC, read-out: AUC ratio for ELF to plasma
  Kp: ~2
[4]; [7]
  Tmax: 15 min
  AUC(0-t): 26700 ± 5780 ng·h/mL
  Cmax: 2350 ± 1450 ng/mL
[4]; [8]
  Tmax: 4.8 min
  AUC(0-t): 11600 ± 1370 ng·h/mL
  Cmax: 2330 ± 830 ng/mL
[4]; single SC dose 35 mg/kg
  distribution from plasma to ELF (penetration into the lung compartment): rapid penetration
[4]; plasma, single 35 mg/kg SC
  AUC0-24h/Dose, mean: 0.33 (μg∙h/mL)/(mg/kg)
[5]
  cytotoxic effects: no cytotoxic effects
[6]; 100 mg/kg SC
  TNF-α concentrations in lung homogenate: no significant effect
[6]; 10 and 30 mg/kg SC
  TNF-α concentrations in lung homogenate: significant reductions
[6]; [9]
  IL-1β concentrations in lung homogenate: reduced
  MMP-9 levels in lung homogenate: not as pronounced as with lefamulin
  chemokines and GM-CSF in lung homogenate: significant but not as pronounced
[6]; all doses tested (10, 30, 100 mg/kg SC), vs vehicle control
  IL-6 concentrations in lung homogenate: reduced to a lesser extent
[6]; lowest dose (10 mg/kg SC)
  IL-1β concentrations in lung homogenate: significant reduction
[6]; lung homogenate, LPS, 10 mg/kg
  CCL2 % reduction: 36%
  CXCL1 % reduction: 44%
  CXCL2 % reduction: 41%
  GM-CSF % reduction: 44%
  IL-1β % reduction: 13%
  IL-6 % reduction: 51%
  MMP9 % reduction: 16%
  TNFα % reduction: 61%
[6]; [10]
  CCL2: 4556.27 pg/mL and 3263.22 pg/mL and 1456.64 pg/mL and 3309.90 pg/mL and 1430.47 pg/mL and 5875.00 pg/mL and 1417.32 pg/mL and 3315.08 pg/mL
  CXCL1: 8286.02 pg/mL and 7278.90 pg/mL and 5769.98 pg/mL and 6100.99 pg/mL and 6284.84 pg/mL and 12400.64 pg/mL and 5305.93 pg/mL and 5666.95 pg/mL
  CXCL2: 7643.01 pg/mL and 7085.07 pg/mL and 4631.04 pg/mL and 5712.04 pg/mL and 6677.58 pg/mL and 11079.57 pg/mL and 4412.48 pg/mL and 8631.64 pg/mL
  GM-CSF: 139.66 pg/mL and 134.35 pg/mL and 75.54 pg/mL and 114.95 pg/mL and 86.88 pg/mL and 293.40 pg/mL and 92.13 pg/mL and 119.35 pg/mL
  IL-1β: 8824 pg/mL and 7408 pg/mL and 8108 pg/mL and 9841 pg/mL and 7312 pg/mL and 9969 pg/mL and 10254 pg/mL and 14453 pg/mL
  IL-6: 703.95 pg/mL and 429.86 pg/mL and 475.85 pg/mL and 521.70 pg/mL and 613.04 pg/mL and 952.23 pg/mL and 337.40 pg/mL and 749.27 pg/mL
  MMP9: 2413 pg/mL and 1880 pg/mL and 2467 pg/mL and 2045 pg/mL and 2015 pg/mL and 1705 pg/mL and 1966 pg/mL
  TNFα: 468.82 pg/mL and 365.25 pg/mL and 396.22 pg/mL and 281.21 pg/mL and 385.93 pg/mL and 406.49 pg/mL and 646.25 pg/mL and 400.08 pg/mL
[6]; [11]
  CCL2 Mean: 3078 pg/mL
  CXCL1, Mean: 7137 pg/mL
  CXCL2, Mean: 6984 pg/mL
  GM-CSF Mean: 132 pg/mL
  IL-1β Mean: 9521 pg/mL
  IL-6 Mean: 598 pg/mL
  MMP9, Mean: 2113 pg/mL
  TNFα Mean: 419 pg/mL

Reference: publication PMC8480901 (PLoS ONE, 2021)
